From publication PMC12951562, “SH2scan: Mapping SH2 Domain-Ligand Binding Selectivity for Inhibitors and Degraders” (Journal of Medicinal Chemistry, 2026)
Non-standard residues stand in square brackets, D forms with d. Residues, ends and D or L forms follow the SMILES beside them. pY = N[C@@H](Cc1ccc(OP(=O)(O)O)cc1)C(=O)O

Experiments:
[1] = biological target: T1, LNK (SH2B3) (Homo sapiens, UniProt Q9UQQ2); assay: biochemical; format: binding
T1 construct: the DNA-tagged SH2 domain concentrations used in this study were <0.1 nM; made in house; host or cells: HEK293 (transient transfection, unpurified extract)
T1 sequence (Q9UQQ2 364-462 limits assumed): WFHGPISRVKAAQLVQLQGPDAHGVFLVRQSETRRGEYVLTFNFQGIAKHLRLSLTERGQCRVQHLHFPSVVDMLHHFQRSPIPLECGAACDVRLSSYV

[2] = biological target: T2, PLCG1(SH2dom.N-term.) (Homo sapiens, UniProt P19174); assay: biochemical; format: binding
T2 construct: SH2dom.N-term. denotes SH2 domain closest to N-terminus of protein; made in house; host or cells: HEK293 (transient transfection, unpurified extract)
T2 sequence (P19174 550-657 limits assumed): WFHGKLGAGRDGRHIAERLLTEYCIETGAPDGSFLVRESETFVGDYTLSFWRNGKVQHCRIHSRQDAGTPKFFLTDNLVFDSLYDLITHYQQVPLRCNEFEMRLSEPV

| Structure (SMILES) | Kd [1] [nM] | Kd [2] [nM] |
| --- | --- | --- |
| CC(=O)N[C@@H](CC(N)=O)C(=O)N[C@H](C(=O)NCC(=O)N[C@@H](CC(=O)O)C(=O)N[C@@H](Cc1ccc(OP(=O)(O)O)cc1)C(=O)N[C@@H](Cc1ccc(O)cc1)C(=O)N[C@@H](CC(=O)O)C(=O)N[C@@H](CC(C)C)C(=O)N[C@@H](Cc1ccc(O)cc1)C(=O)NCC(N)=O)[C@@H](C)O [Ac-NTGDpYYDLYG-NH2] (Ac-NTGD[pY]YDLYG-NH2) | 3220 ± 595 | – |
| CSCC[C@H](NC(=O)[C@H](CO)NC(=O)[C@H](CC(C)C)NC(=O)[C@H](CC(=O)O)NC(=O)[C@H](CC(C)C)NC(=O)[C@H](Cc1ccc(OP(=O)(O)O)cc1)NC(=O)[C@H](CCC(=O)O)NC(=O)[C@H](CCC(N)=O)NC(=O)[C@H](CC(N)=O)NC(=O)[C@H](CO)NC(=O)[C@@H](NC(C)=O)[C@@H](C)O)C(N)=O [Ac-TSNQEpYLDLSM-NH2] (Ac-TSNQE[pY]LDLSM-NH2) | – | 116 ± 6.69 |
